Experiment [1] addresses 1G4 TCR. The note with it: solution affinity of NYE pMHC for 1G4 TCR used in Fig 4F; ref Pettmann et al, 2021; cited from earlier work.
Experiment [2] concerns 1G4 TCR. Briefly: Laminar flow chamber (LFC) assay, 1G4 TCR-coated beads over pMHC surface. As to conditions: for force sensitivity parameter xβ, 1G4 TCR: Bell's model fit of off-rates under force (survival at 1 s, corrected for non-specific binding), forces < 120 pN, 6–10 independent experiments combined; for force sensitivity parameter xβ, 1G4 TCR / zero-force off-rate (k0off) from Bell's model, 1G4 TCR: cell-free; for force sensitivity parameter xβ, 1G4 TCR / off-rate / bond type at forces < 20 pN, 1G4 TCR / bond type under force, 1G4 TCR / zero-force off-rate (k0off) from Bell's model, 1G4 TCR: 37°C; for off-rate: survival at 1 s, corrected data; for koff_0: source data of Fig 2E, 1G4 TCR, zero-force off-rate from Bell's model fit; for bond type at forces < 20 pN, 1G4 TCR / bond type under force, 1G4 TCR: LFC; for bond type under force, 1G4 TCR: purified TCR; for zero-force off-rate (k0off) from Bell's model, 1G4 TCR: extrapolated from off-rates under force (survival at 1 s, corrected data).
Protocol: In this assay, beads coated with TCR flow over a low density of pMHC while a camera records bead motion (Fig 2A, Movie EV1). […] The duration of TCR/pMHC binding is determined by an automated image analysis algorithm that detects the duration of bead arrests.
We first confirmed that bead arrests were mediated by single bonds. […] These constraints limit the LFC to a range of flow velocities that translate into pulling forces between ~ 5–120 pN with the upper bound determined, in part, by the binding rate and strength of the specific TCR/pMHC interaction. Finally, survival distributions were generated using the duration of individual beads for each TCR/pMHC pair and corrected by the corresponding distribution of arrests without pMHC for each paired velocity. We focus on the first 5 s of the distribution because on longer timescales measurement of bead arrest is often interrupted by a collision from a second bead.
Glass slides were rinsed twice in absolute ethanol then washed in a “piranha” solution composed of 70% H2SO4, 15% water and 15% H2O2 for 10 min, then rinsed with 5 litres of deionized water. […] Glass slides were then mounted in a home‐made multi‐channel thermo‐regulated flow chamber device, forming nine independent chambers of 12 mm length and 2 × 0.250 mm^2 section. Each chamber was then filled with a biotinylated pMHC solution in PBS with 0.1% BSA at chosen concentration, using cascade dilution to deposit in our 9‐chambers apparatus 8 different amounts of pMHC plus one chamber as a negative control. Microspheres (Dynal M‐450 tosly‐activated, Thermo Fisher, France) were rinsed three time in a 0.1 M borate solution, then incubated in a 200 μg/ml solution of anti‐6xHis‐tag antibody (Bio‐Rad, MCA1396, clone AD1.1.10, RRID: AB322084) overnight under constant agitation. Microspheres were rinsed three time in PBS/0.1% BSA then incubated prior to each experiment in a 200 μg/ml solution of 6xHis‐tag TCR.
The device forming nine independent chambers on a common glass slide was thermo‐regulated at 37°C by water circulation, set on an inverted microscope with a 10× lens (Leica, Germany) with a digital CCD camera (UEye, IDS Germany), and chamber entry was connected to the piping. For each independent chamber, the automaton performed cycles, each cycle being an experiment for a given shear flow. The automaton repeated cycles of microspheres agitation, microspheres injection in the chamber, launch of movie recording at 50 frames per seconds with M‐JPEG on‐the‐fly compression, and flow at a given shear for 90 s. Shear value was automatically modified for each new cycle until all chosen shear conditions had been recorded. The chamber was manually disconnected and next chamber was connected, then automaton was re‐launched. Raw data are in the form of movies of microspheres motion. A software suite written in Java as ImageJ plug‐ins retrieves microspheres trajectories and then detects microspheres arrest events using a velocity threshold and record arrests number, arrests duration and distance travelled by sedimented microspheres.
Binding linear densities are calculated as the ratio of the number of arrests on the distance travelled by microspheres sedimented on the chamber surface. Specific binding densities are calculated by subtracting control linear binding density from assay linear binding density for a given shear condition. Duration of arrests was pooled for experiments sharing identical TCR and pMHC molecules, identical amount of pMHC on the surface and identical shear rate, to build survival curves of the arrests. […] Each TCR‐pMHC bond was measured in 8 to 12 independent experiments.

Experiment [3] concerns 1G4 TCR. Also on record: method as in Robert et al, 2012. As to conditions: ref Robert et al, 2012; cited from earlier work.
For experiment [4], the target named is Tax 7Q peptide presented on HLA-A*02:01 (human | HTLV-1). As to the kind of experiment: SPR. (In SPR one partner is held on a chip, and binding of the other changes the refractive index at the surface.)
Experiment [5] addresses Tax 5H peptide presented on HLA-A*02:01 (human | HTLV-1). Briefly: SPR.
Experiment [6] concerns the target Tax 7T peptide presented on HLA-A*02:01 (human | HTLV-1). As to the kind of experiment: SPR.
Experiment [7] concerns the target Tax 7R peptide presented on HLA-A*02:01 (human | HTLV-1). Briefly: SPR.
Experiment [8] concerns the target Tax 5F peptide (printed ) presented on HLA-A*02:01 (human | HTLV-1). As to the kind of experiment: SPR.
For experiment [9], the target named is NYE 4D peptide presented on HLA-A*02:01. Briefly: SPR.
Experiment [10] addresses NYE 6V peptide presented on HLA-A*02:01. As to the kind of experiment: SPR.
Experiment [11] deals with NYE 3A peptide presented on HLA-A*02:01. Briefly: SPR.
The target of experiment [12] is NYE 6T peptide presented on HLA-A*02:01. Briefly: SPR.
The target of experiment [13] is NYE 3Y peptide presented on HLA-A*02:01. Briefly: SPR.
In experiment [14] the target is NYE 4E5E8E peptide presented on HLA-A*02:01. Briefly: SPR.

pKd: −log10 of the molar value.

For orientation: pKd means −log10 of the Kd, conventionally taken in molar units.

As to SLLDWITQV [NYE 4D], on 1G4 TCR [1], the pKd was 3.85. In the experiment on 1G4 TCR [2], the “force sensitivity parameter xβ, 1G4 TCR” value is 0.03228 nm. Besides, the off-rate with 1G4 TCR [2] (Force 5.76043 pN) turned out to be 0.2871 s⁻¹; with 1G4 TCR [2] (Force 10.9915 pN) it was 0.9234 s⁻¹; in the experiment with 1G4 TCR [2] (Force 35.7266 pN) it was 1.088 s⁻¹; in the experiment with 1G4 TCR [2] (Force 49.679 pN), 0.8939 s⁻¹; in the experiment with 1G4 TCR [2] (Force 66.9081 pN), 1.152 s⁻¹; in the experiment on 1G4 TCR [2] (Force 92.3818 pN) it was 1.23 s⁻¹. For the same substance, in the experiment with 1G4 TCR [2], the koff_0 is reported as -0.1852.

In the case of SLAMWITQV [NYE 3A], the “bond type under force at 25°C, 1G4 TCR” value in the experiment on 1G4 TCR [3] is listed as “canonical slip”. In the experiment with 1G4 TCR [2], the “force sensitivity parameter xβ, 1G4 TCR” value is recorded as -0.016 nm; the “bond type at forces < 20 pN, 1G4 TCR” value was “slip bonds”; the “bond type under force, 1G4 TCR” value is reported as “did not display canonical slip or catch bonds”; the “zero-force off-rate (k0off) from Bell's model, 1G4 TCR” value was 0.42 s⁻¹.

With “Soluble A6 TCR (from UniProt P01848 1-93; A0A5B9 1-129)”, the pKd in [4] was 4.43; in experiment [5], 4.25; in [6], 5.52; in [7], 4.68; in [8], 5.52.

Take SLYMWITQV [NYE 3Y]: the “force sensitivity parameter xβ, 1G4 TCR” value with 1G4 TCR [2] is 0.06402 nm. The off-rate in the experiment with 1G4 TCR [2] (Force 4.46758 pN) amounted to 0.1572 s⁻¹; in the experiment with 1G4 TCR [2] (Force 11.986 pN) it was 0.462 s⁻¹; with 1G4 TCR [2] (Force 24.9875 pN) it was 0.9162 s⁻¹; in the experiment on 1G4 TCR [2] (Force 50.6303 pN), 1.043 s⁻¹; with 1G4 TCR [2] (Force 74.2014 pN) it was 1.215 s⁻¹.

Take “Soluble 1G4 TCR (from UniProt P01848 1-93; A0A5B9 1-129)”: the negative-log Kd (pKd) in experiment [9] was 3.86; in experiment [10], 4.77; in [11], 5.15; in [12], 3.79; in experiment [13] it was 4.26; in [14] it was 4.77.

On to SLLMWTTQV [NYE 6T], for which the “bond type under force at 25°C, 1G4 TCR” value with 1G4 TCR [3] was “catch bonds”. Also, the pKd at 1G4 TCR [1] is 3.79. Also, in the experiment with 1G4 TCR [2], the “force sensitivity parameter xβ, 1G4 TCR” value was found to be 0.019 nm; the “bond type at forces < 20 pN, 1G4 TCR” value is listed as “slip bonds”; the “bond type under force, 1G4 TCR” value is listed as “did not display canonical slip or catch bonds”; the “zero-force off-rate (k0off) from Bell's model, 1G4 TCR” value is 0.87 s⁻¹.

Consider SLLEEITEV [NYE 4E5E8E], for which, in the experiment on 1G4 TCR [2], the “force sensitivity parameter xβ, 1G4 TCR” value is 0.06548 nm. Also, the off-rate is 0.132 s⁻¹ in the experiment with 1G4 TCR [2] (Force 9.5329 pN); 0.181 s⁻¹ with 1G4 TCR [2] (Force 20.855 pN); 0.5269 s⁻¹ in the experiment with 1G4 TCR [2] (Force 57.9236 pN); 0.6611 s⁻¹ in the experiment on 1G4 TCR [2] (Force 74.4128 pN); 0.7569 s⁻¹ in the experiment on 1G4 TCR [2] (Force 98.8295 pN). In addition, the koff_0 in the experiment on 1G4 TCR [2] was -0.7399.

As to SLLMWVTQV [NYE 6V], in the experiment on 1G4 TCR [2], the “force sensitivity parameter xβ, 1G4 TCR” value was found to be 0.08939 nm. Moreover, the off-rate in the experiment on 1G4 TCR [2] (Force 4.03 pN) is 0.1923 s⁻¹; with 1G4 TCR [2] (Force 10.0633 pN), 0.2976 s⁻¹; with 1G4 TCR [2] (Force 34.1225 pN), 0.9589 s⁻¹; in the experiment on 1G4 TCR [2] (Force 53.3785 pN), 1.216 s⁻¹; in the experiment on 1G4 TCR [2] (Force 71.3475 pN) it was 1.468 s⁻¹.

The record behind these values is paper PMC10068313, “Mechanical forces impair antigen discrimination by reducing differences in T‐cell receptor/peptide–MHC off‐rates” (The EMBO Journal, 2022).
